From patent publication US20060140858A1, “Drug pre-targeting by means of bi-specific antibodies and hapten constructs comprising a carrier peptide and the active agent(s)” (Immunomedics, Inc., priority 2002, published 2006)
Where two headings read alike, the source gives them in different places. Each block holds one molecule with its values, some of them ahead of it. *1 amine or outer side, *2 acyl side, *3 side chain or, on linkers, in order; H or OH if unused. Where a SMILES comes first, the peptide text is derived from it. Side-chain parts run from the residue outwards. The star is where a group is joined. DOTA = O=C(O)CN1CCN(CC(=O)O)CCN(CC(=O)*)CCN(CC(=O)O)CC1; DTPA = O=C(O)CN(CCN(CC(=O)O)CC(=O)O)CCN(CC(=O)O)CC(=O)*; NH(2-(imidazol-4-yl)ethyl) = c1ncc(CCN*)[nH]1; Suc = O=C(CCC(=O)[*:2])[*:1]; X1 = NC(=S)NN=CC(=O)*

Key:
[1] = molecular target: peptide containing a single HSG substituent and a thiol (mono HSG peptide); experiment: BIAcore, mono HSG peptide coupled to a CM-5 chip
[2] = molecular target: DOTA-Phe-Lys(HSG)-D-Tyr-Lys(HSG)-NH2 (IMP 241); experiment: in vivo pretargeting, GW-39 tumors, 3 h after 111In-IMP-241
[3] = molecular target: carcinoembryonic antigen (CEA) (UniProt P06731); experiment: SE-HPLC, 125I-labeled bsMAb with an excess of CEA
[4] = type: in vitro ADME, mouse
From the text: The peptide was monitored as described above by HPLC.

[5] = Control group: 99m-Tc-IMP-192 alone; type: in vivo, nude mice; settings: female, nude (Taconic NCRNU), mouse, total radioactivity
[6] = Clearance of 99m-Tc-IMP-192 in BALB/c mice; type: in vivo
[7] = Pretargeting: 125-I-hMN-14 × 734 bsAb, 24 h later 99m-Tc-IMP-192, biodistribution; type: in vivo, Nude mice; settings: female, mouse, total radioactivity; for tissue uptake at 0.5 h: 30 min post peptide; for tissue uptake at 1 h: 1 h post peptide; for tissue uptake at 3 h: 3 h post peptide; for tissue uptake at 24 h: 24 h post peptide
[8] = molecular target: Ac-Lys(DTPA)-Tyr-Lys(DTPA)-Lys(Tscg-Cys)-NH2 (IMP 192); experiment: in vivo, calculated from biodistribution in GW-39 tumor-bearing mice, 3 h after 99m-Tc-IMP-192, assuming one peptide per bsAb
[9] = molecular target: carcinoembryonic antigen (CEA) (UniProt P06731); experiment: analytical size exclusion HPLC, radioiodinated bsAb with 10-20x molar excess of CEA
[10] = molecular target: Ac-Lys(DTPA)-Tyr-Lys(DTPA)-Lys(Tscg-Cys)-NH2 (IMP 192); experiment: in vivo, calculated from biodistribution in GW-39 tumor-bearing mice, 1 h after 99m-Tc-IMP-192, assuming one peptide per bsAb
[11] = molecular target: Ac-Lys(DTPA)-Tyr-Lys(DTPA)-Lys(Tscg-Cys)-NH2 (IMP 192); experiment: in vivo, calculated from biodistribution in GW-39 tumor-bearing mice, 30 min after 99m-Tc-IMP-192, assuming one peptide per bsAb
[12] = molecular target: Ac-Lys(DTPA)-Tyr-Lys(DTPA)-Lys(Tscg-Cys)-NH2 (IMP 192); experiment: in vivo, calculated from biodistribution in GW-39 tumor-bearing mice, 24 h after 99m-Tc-IMP-192, assuming one peptide per bsAb
[13] = molecular target: carcinoembryonic antigen (CEA) (UniProt P06731); experiment: immunoreactivity of 99mTc-hMN-14 Fab′; method and antigen not given
[14] = Cys Challenge 1 mM in 0.05 M phosphate pH 7.5 Room Temp., 1 hr
[15] = Saline Dilution Room Temp., 19 hr
[16] = Saline Dilution Room Temp., […]

carcinoembryonic antigen (CEA), sequence (P06731 35-685 limits assumed): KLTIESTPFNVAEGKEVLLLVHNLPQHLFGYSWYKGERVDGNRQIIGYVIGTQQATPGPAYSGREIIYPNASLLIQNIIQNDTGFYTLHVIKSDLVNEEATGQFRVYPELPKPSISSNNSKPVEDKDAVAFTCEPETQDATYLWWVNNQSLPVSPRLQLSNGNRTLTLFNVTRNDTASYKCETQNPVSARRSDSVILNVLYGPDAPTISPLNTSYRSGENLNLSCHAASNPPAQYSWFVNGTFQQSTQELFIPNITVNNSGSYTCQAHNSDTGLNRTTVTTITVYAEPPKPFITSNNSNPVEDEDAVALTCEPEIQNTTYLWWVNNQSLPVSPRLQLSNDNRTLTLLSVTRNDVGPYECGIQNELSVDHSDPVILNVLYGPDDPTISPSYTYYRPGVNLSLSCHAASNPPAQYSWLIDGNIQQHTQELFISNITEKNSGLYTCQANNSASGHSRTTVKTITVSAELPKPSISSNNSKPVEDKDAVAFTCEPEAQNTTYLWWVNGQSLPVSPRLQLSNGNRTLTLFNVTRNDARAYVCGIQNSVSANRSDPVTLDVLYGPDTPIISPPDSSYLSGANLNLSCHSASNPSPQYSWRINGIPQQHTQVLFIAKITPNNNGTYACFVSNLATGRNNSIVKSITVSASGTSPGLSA

Kd [1]: 1.5 nM
ratio of the % ID/g of the peptide compared to the bsMAb in the tumor [2]: 3.9
percent of radiolabeled product shifting to a higher molecular weight [3]: > 90%
Molecule: hMN-14 × m679 F(ab′)2 bsMAb (bispecific antibody)

converted to the shorter retention time peak [4]: about 70%
Molecule: NC(=O)[C@H](CCCCNC(=O)CNC(=O)CCC(=O)NCCc1cnc[nH]1)NC(=O)[C@H](Cc1ccc(O)cc1)NC(=O)[C@H](CCCCNC(=O)CNC(=O)CCC(=O)NCCc1cnc[nH]1)NC(=O)[C@H](Cc1ccccc1)NC(=O)CN1CCN(CC(=O)O)CCN(CC(=O)O)CCN(CC(=O)O)CC1 [IMP 237, DOTA-Phe-Lys(HSG)-Tyr-Lys(HSG)-NH2] ({DOTA}-FK([Gly-Suc-NH(2-(imidazol-4-yl)ethyl)])YK([Gly-Suc-NH(2-(imidazol-4-yl)ethyl)])-NH2)

Origin (ITLC 24 hr Saturated NaCl) (Cys Challenge): 91.3% Origin
Solvent Front (ITLC 24 hr Saturated NaCl) (Cys Challenge): 7.4% Solvent
Peptide (HPLC) [14]: 98% Peptide
Void Vol (HPLC) [14]: 2% Void Vol
Peptide (HPLC) (Cys Challenge, 19.5 hr): 89% Peptide
Void Vol (HPLC) (Cys Challenge, 19.5 hr): 11% Void Vol
Origin (ITLC 24 hr Saturated NaCl) (Kit Room Temp.): 94% Origin
Solvent Front (ITLC 24 hr Saturated NaCl) (Kit Room Temp.): 5% Solvent Front
Peptide (HPLC) (Kit Room Temp., 3 hr): 99% Peptide
Void Vol (HPLC) (Kit Room Temp., 3 hr): 1% Void Vol
Peptide (HPLC) (Kit Room Temp., 21 hr): 95% Peptide
Void Vol (HPLC) (Kit Room Temp., 21 hr): 5% Void Vol
Peptide (HPLC) (Kit Room Temp., Initial Label): 99% Peptide
Void Vol (HPLC) (Kit Room Temp., Initial Label): 1% Void Vol
Origin (ITLC 24 hr Saturated NaCl) (Saline Dilution Room Temp.): 97% Origin
Solvent Front (ITLC 24 hr Saturated NaCl) (Saline Dilution Room Temp.): 2.3% Solvent
Peptide (HPLC) [15]: 96% Peptide
Void Vol (HPLC) [15]: 4% Void Vol
Peptide (HPLC) [16]: 99% Peptide
Void Vol (HPLC) [16]: 1% Void Vol
tissue uptake at 3 h ([5]; Kidney): 2.6 ± 0.9 %ID/g
tissue uptake at 3 h ([5]; Liver): 0.3 ± 0.07 %ID/g
tissue uptake at 3 h ([5]; Spleen): 0.1 ± 0.05 %ID/g
tissue uptake at 2 h ([6]; BALB/c, mouse, large intestine, total radioactivity, Lg.Int., 2 h): 1.53 ± 0.45 %ID/g
tissue uptake at 4 h ([6]; BALB/c, mouse, large intestine, total radioactivity, Lg.Int., 4 h): 1.58 ± 0.7 %ID/g
tissue uptake at 24 h ([6]; BALB/c, mouse, large intestine, total radioactivity, Lg.Int., 24 h): 0.15 ± 0.14 %ID/g
tissue uptake at 1 h ([6]; BALB/c, mouse, small intestine, total radioactivity, Small int, 1 h): 1.37 ± 0.75 %ID/g
tissue uptake at 2 h ([6]; BALB/c, mouse, small intestine, total radioactivity, Small int, 2 h): 0.6 ± 0.06 %ID/g
tissue uptake at 4 h ([6]; BALB/c, mouse, small intestine, total radioactivity, Small int, 4 h): 0.21 ± 0.09 %ID/g
tissue uptake at 24 h ([6]; BALB/c, mouse, small intestine, total radioactivity, Small int, 24 h): 0.03 ± 0.01 %ID/g
tissue uptake at 1 h ([6]; BALB/c, mouse, total radioactivity, Blood, 1 h): 0.3 ± 0.09 %ID/g
tissue uptake at 2 h ([6]; BALB/c, mouse, total radioactivity, Blood, 2 h): 0.21 ± 0.03 %ID/g
tissue uptake at 4 h ([6]; BALB/c, mouse, total radioactivity, Blood, 4 h): 0.14 ± 0.04 %ID/g
tissue uptake at 24 h ([6]; BALB/c, mouse, total radioactivity, Blood, 24 h): 0.05 ± 0.01 %ID/g
tissue uptake at 1 h ([6]; BALB/c, mouse, total radioactivity, Liver, 1 h): 0.27 ± 0.18 %ID/g
tissue uptake at 2 h ([6]; BALB/c, mouse, total radioactivity, Liver, 2 h): 0.22 ± 0.16 %ID/g
tissue uptake at 1 h ([6]; BALB/c, mouse, total radioactivity, Muscle, 1 h): 0.1 ± 0.06 %ID/g
tissue uptake at 2 h ([6]; BALB/c, mouse, total radioactivity, Muscle, 2 h): 0.05 %ID/g
tissue uptake at 4 h ([6]; BALB/c, mouse, total radioactivity, Muscle, 4 h): 0.03 ± 0.01 %ID/g
tissue uptake at 4 h ([6]; BALB/c, mouse, total radioactivity, Stomach, 4 h): 0.27 ± 0.33 %ID/g
tissue uptake at 24 h ([6]; BALB/c, mouse, total radioactivity, Stomach, 24 h): 0.02 ± 0.01 %ID/g
excreta dose per gram or mL at 1 h ([6]; BALB/c, mouse, total radioactivity, Urine, 1 h): 169 ± 95 %ID/g
excreta dose per gram or mL at 2 h ([6]; BALB/c, mouse, total radioactivity, Urine, 2 h): 57 ± 15 %ID/g
excreta dose per gram or mL at 4 h ([6]; BALB/c, mouse, total radioactivity, Urine, 4 h): 6.3 ± 4.53 %ID/g
excreta dose per gram or mL at 24 h ([6]; BALB/c, mouse, total radioactivity, Urine, 24 h): 0.2 ± 0.02 %ID/g
tissue uptake at 1 h ([6]; BALB/c, mouse, Kidney, 1 h): 4.16 ± 0.75 %ID/g
tissue uptake at 2 h ([6]; BALB/c, mouse, Kidney, 2 h): 4.05 ± 0.6 %ID/g
tissue uptake at 4 h ([6]; BALB/c, mouse, Kidney, 4 h): 3.21 ± 0.99 %ID/g
tissue uptake at 24 h ([6]; BALB/c, mouse, Kidney, 24 h): 1.21 ± 0.08 %ID/g
tissue uptake at 4 h ([6]; BALB/c, mouse, Liver, 4 h): 0.09 ± 0.02 %ID/g
tissue uptake at 24 h ([6]; BALB/c, mouse, Liver, 24 h): 0.04 %ID/g
tissue uptake at 1 h ([6]; BALB/c, mouse, Lungs, 1 h): 0.5 ± 0.23 %ID/g
tissue uptake at 2 h ([6]; BALB/c, mouse, Lungs, 2 h): 0.29 ± 0.08 %ID/g
tissue uptake at 4 h ([6]; BALB/c, mouse, Lungs, 4 h): 0.19 ± 0.04 %ID/g
tissue uptake at 24 h ([6]; BALB/c, mouse, Lungs, 24 h): 0.05 %ID/g
tissue uptake at 1 h ([6]; BALB/c, mouse, Spleen, 1 h): 0.08 ± 0.01 %ID/g
tissue uptake at 2 h ([6]; BALB/c, mouse, Spleen, 2 h): 0.09 ± 0.3 %ID/g
tissue uptake at 4 h ([6]; BALB/c, mouse, Spleen, 4 h): 0.05 ± 0.02 %ID/g
tissue uptake at 24 h ([6]; BALB/c, mouse, Spleen, 24 h): 0.03 ± 0.01 %ID/g
% ID/g ([6]; Muscle, 24 h): 0.00 ± 0.0 % ID/g
in vivo stability (activity excreted in urine, SE-HPLC with antibody) ([6]; urine from a mouse in a pretargeting experiment): appears to be the intact peptide
tissue uptake at 0.5 h ([7]; NCRNU nude, Kidney): 9.9 ± 6.1 %ID/g
tissue uptake at 0.5 h ([7]; NCRNU nude, Liver): 1.4 ± 0.3 %ID/g
tissue uptake at 1 h ([7]; NCRNU nude, Liver): 0.9 ± 0.2 %ID/g
tissue uptake at 3 h ([7]; NCRNU nude, Liver): 0.6 ± 0.1 %ID/g
tissue uptake at 0.5 h ([7]; NCRNU nude, Spleen): 1.2 ± 0.4 %ID/g
tissue uptake at 1 h ([7]; NCRNU nude, Spleen): 0.8 ± 0.2 %ID/g
tissue uptake at 3 h ([7]; NCRNU nude, Spleen): 0.5 ± 0.1 %ID/g
tissue uptake at 0.5 h ([7]; NCRNU nude, Tumor): 11.4 ± 4.8 %ID/g
tissue uptake at 1 h ([7]; NCRNU nude, Tumor): 14.3 ± 3.6 %ID/g
tissue uptake at 3 h ([7]; NCRNU nude, Tumor): 12.6 ± 5.2 %ID/g
tissue uptake at 24 h ([7]; NCRNU nude, Tumor): 8.7 ± 3.3 %ID/g
tissue uptake at 0.5 h ([7]; nude (Taconic NCRNU), Blood): 4.3 ± 1.2 %ID/g
tissue uptake at 1 h ([7]; nude (Taconic NCRNU), Blood): 3.5 ± 0.9 %ID/g
tissue uptake at 3 h ([7]; nude (Taconic NCRNU), Blood): 1.7 ± 0.4 %ID/g
tissue uptake at 24 h ([7]; nude (Taconic NCRNU), Blood): 0.6 ± 0.2 %ID/g
tissue uptake at 1 h ([7]; nude (Taconic NCRNU), Kidney): 4.6 ± 0.7 %ID/g
tissue uptake at 3 h ([7]; nude (Taconic NCRNU), Kidney): 2.4 ± 0.5 %ID/g
tissue uptake at 24 h ([7]; nude (Taconic NCRNU), Kidney): 1.2 ± 0.3 %ID/g
tissue uptake at 0.5 h ([7]; nude (Taconic NCRNU), Lungs): 4.2 ± 3.4 %ID/g
tissue uptake at 1 h ([7]; nude (Taconic NCRNU), Lungs): 3.6 ± 1.9 %ID/g
tissue uptake at 3 h ([7]; nude (Taconic NCRNU), Lungs): 1 ± 0.3 %ID/g
tissue uptake at 24 h ([7]; nude (Taconic NCRNU), Lungs): 0.3 ± 0.1 %ID/g
Molecule: CC(=O)N[C@@H](CCCCNC(=O)CN(CCN(CCN(CC(=O)O)CC(=O)O)CC(=O)O)CC(=O)O)C(=O)N[C@@H](Cc1ccc(O)cc1)C(=O)N[C@@H](CCCCNC(=O)CN(CCN(CCN(CC(=O)O)CC(=O)O)CC(=O)O)CC(=O)O)C(=O)N[C@@H](CCCCNC(=O)[C@H](CS)NC(=O)C=NNC(N)=S)C(N)=O [IMP 192, Ac-Lys(DTPA)-Tyr-Lys(DTPA)-Lys(Tscg-Cys)-NH2] (Ac-K(DTPA)YK(DTPA)K([Cys-X1])-NH2)

% saturation of the available DTPA binding sites on the tumor bound bsAb [8]: 25%
percent bound [9]: 90%
% saturation of the available DTPA binding sites on the tumor bound bsAb [10]: 25.8%
% saturation of the available DTPA binding sites on the tumor bound bsAb [11]: 25.4%
% saturation of the available DTPA binding sites on the tumor bound bsAb [12]: 28%
Molecule: hMN-14 × 734 (Fab × Fab) bi-specific antibody (bispecific antibody)

immunoreactive fraction [13]: 92%
B1: humanized MN-14 (hMN-14) Fab′-SH, 99mTc-labeled (Fab, INN chains, looked up, V domains shown)
VH: EVQLVESGGGVVQPGRSLRLSCSASGFDFTTYWMSWVRQAPGKGLEWIGEIHPDSSTINYAPSLKDRFTISRDNAKNTLFLQMDSLRPEDTGVYFCASLYFGFPWFAYWGQGTPVTVSS
VL: DIQLTQSPSSLSASVGDRVTITCKASQDVGTSVAWYQQKPGKAPKLLIYWTSTRHTGVPSRFSGSGSGTDFTFTISSLQPEDIATYYCQQYSLYRSFGQGTKVEIK
modifications: Fab′ 99mTc label
